The conditions of data set [1]: use of 4% HQ versus 5% Vitamin C; cited from earlier work.
Data set [2] in a line: Solubility of optional additional components in polyol solvents. Type of data set: physicochemical. The text has this:
Additional ingredients were chosen for their compatibility with (e.g., miscibility in) 1,3 propanediol, 1,2 propanediol, and 1,3 butanediol.

For data set [3] the following is noted: cited from earlier work.
Data set [4] can be described thus: Solubilization / recrystallization of AA with urea in 1,3 propanediol. Type of data set: physicochemical. The source says:
Next, concentrations of ascorbic acid beyond the aforementioned maximum concentration are solubilized, using urea as a co-solvent.

A short description of data set [5]: Comparative studies: solubilization with heating and crystallization on room temperature storage. Type of data set: physicochemical. Particulars: ascorbic acid together with urea in propylene glycol, butylene glycol and propanediol. The protocol:
This example was reproduced.
All mixtures were heated to 85° C.

The conditions of data set [6]: 20% urea solution, cited from earlier work.

Like-named read-outs stand apart in the source and are kept apart here.

Consider `O=C1O[C@H]([C@@H](O)CO)C(O)=C1O` [AA, L-ascorbic acid], for which, in data set [1], the improvement is listed as 62.5%.

Consider `COc1cc(CC(C(C)=O)C(C)=O)ccc1O` [Acetyl zingerone], for which the solubility entry in data set [2] (in 1,3 propanediol, 1,2 propanediol and 1,3 butanediol at 0.5-1%) was “readily soluble”.

Consider `O=C(O)CCCCCCCC(=O)O` [AzA, Azelaic acid, reference compound], for which the concentration solubilized result is recorded as “up to 10%” in data set [2] (in 1,3 propanediol) and 7.5% in data set [2] (with 10% AA, 5% U in a 1,3 propanediol base). In addition, the pKa in data set [3] was 4.15.

For the compound `Oc1ccc(O)cc1` [HQ, hydroquinone], in data set [1], the improvement is given as 93% and the side-effects is reported as 68.7%.

For `NC(N)=O` [U, urea], in data set [4], the “minimum amount U required to solubilize 20% AA” value is recorded as approximately 10% and the “saturation of U reached before recrystallization of U” value is approximately 27.8%. Also, the “maximum concentrations soluble before urea starts to precipitate (the ceiling)” value in data set [5] is listed as 20%. Moreover, in data set [6] (after 11 months at room temperature), the pH is 8.8. In data set [6] (start), the pH is 7.4.

On to `CC1(C)[C@@H](O[C@H]2O[C@H](C(=O)O)[C@@H](O)[C@H](O)[C@H]2O[C@@H]2O[C@H](C(=O)O)[C@@H](O)[C@H](O)[C@H]2O)CC[C@]2(C)[C@H]3C(=O)C=C4[C@@H]5C[C@@](C)(C(=O)O)CC[C@]5(C)CC[C@@]4(C)[C@]3(C)CC[C@@H]12` [glycyrrhizic acid, Glycyrrhizic acid], for which the solubility result in data set [2] (in 1,3-propanediol) is “shows solubility”.

Madecassoside: the solubility result in data set [2] (at a concentration of 0.2% in 1,3 propanediol, 1,2 propanediol and 1,3 butanediol) is “soluble”.

The term pKa denotes the pH at which an ionisable group is half protonated.

The values above are taken from patent US20210228467A1, “High-Potency Vitamin C Topical Formulations” (Baek Clinical Inc., priority 2018, published 2021).
